Assay results from ChEMBL document CHEMBL1811840, “p-hydroxyacetophenone amides from Cystobacter ferrugineus, strain Cb G35” (J Nat Prod, 2011).
Active and inactive are the calls of the source. The calls are words filed in the database; no cut-off is given here.

Experiments:
Bracteacoccus = test: Antimicrobial activity against Bracteacoccus sp. at 0.8 to 100 ug/mL by serial dilution method; format: functional
Staphylococcus aureus = test: Antimicrobial activity against Staphylococcus aureus at 100 ug/mL after 24 hrs by serial dilution method; format: functional, organism-based
Botryococcus braunii = test: Antimicrobial activity against Botryococcus braunii at 0.8 to 100 ug/mL by serial dilution method; format: functional
[1] = system: Scenedesmus bajacalifornicus; test: Antimicrobial activity against Scenedesmus bajacalifornicus at 0.8 to 100 ug/mL by serial dilution method; format: functional; conditions: Tetradesmus bajacalifornicus
[2] = system: Chromobacterium violaceum; test: Antimicrobial activity against Chromobacterium violaceum at 100 ug/mL after 24 hrs by serial dilution method; format: functional, organism-based
Wickerhamomyces anomalus = test: Antimicrobial activity against Pichia anomala at 100 ug/mL after 24 hrs by serial dilution method; format: functional, organism-based
Mucor hiemalis = test: Antimicrobial activity against Mucor hiemalis at 100 ug/mL by serial dilution method; format: functional, organism-based
Pseudococcomyxa simplex [3] = test: Antimicrobial activity against Pseudococcomyxa simplex at 0.8 to 100 ug/mL by serial dilution method; format: functional
Escherichia coli = test: Antimicrobial activity against Escherichia coli at 100 ug/mL after 24 hrs by serial dilution method; format: functional, organism-based
Candida albicans = test: Antimicrobial activity against Candida albicans at 100 ug/mL after 24 hrs by serial dilution method; format: functional, organism-based
Nocardia = test: Antimicrobial activity against Nocardia flava at 100 ug/mL after 24 hrs by serial dilution method; format: functional
[4] = system: Schizosaccharomyces pombe; test: Antimicrobial activity against Schizosaccharomyces pombe at 100 ug/mL after 24 hrs by serial dilution method; format: functional, organism-based
Micrococcus luteus = test: Antimicrobial activity against Micrococcus luteus at 100 ug/mL after 24 hrs by serial dilution method; format: functional, organism-based
Rhodotorula glutinis = test: Antimicrobial activity against Rhodotorula glutinis at 100 ug/mL after 24 hrs by serial dilution method; format: functional, organism-based
U-937 = test: Cytotoxicity against human U937 cells up to 100 ug/mL by WST-1 assay; format: functional, cell-based
Chlamydomonas = test: Antimicrobial activity against Chlamydomonas sp. at 0.8 to 100 ug/mL by serial dilution method; format: functional
Pseudococcomyxa simplex [5] = test: Antimicrobial activity against Pseudococcomyxa simplex at 100 ug/mL by serial dilution method; format: functional

Compound | growth inhibition (GI) (Bracteacoccus) | growth inhibition (GI) (Staphylococcus aureus) | growth inhibition (GI) (Botryococcus braunii) | growth inhibition (GI) [1] | growth inhibition (GI) [2] | growth inhibition (GI) (Wickerhamomyces anomalus) | growth inhibition (GI) (Mucor hiemalis) | growth inhibition (GI) (Pseudococcomyxa simplex [3]) | growth inhibition (GI) (Escherichia coli) | growth inhibition (GI) (Candida albicans) | growth inhibition (GI) (Nocardia) | growth inhibition (GI) [4] | growth inhibition (GI) (Micrococcus luteus) | growth inhibition (GI) (Rhodotorula glutinis) | Activity (U-937) | growth inhibition (GI) (Chlamydomonas) | growth inhibition (GI) (Pseudococcomyxa simplex [5])
CCCCCC(=O)NCC(=O)c1ccc(O)cc1 | inactive | inactive | inactive | inactive | inactive | inactive | inactive | inactive | inactive | inactive | inactive | inactive | inactive | inactive | inactive | inactive | –
CCCC(=O)NCC(=O)c1ccc(O)cc1 | inactive | inactive | inactive | inactive | inactive | inactive | inactive | inactive | inactive | inactive | inactive | inactive | inactive | inactive | inactive | inactive | –
CC(=O)NCC(=O)c1ccc(O)cc1 | inactive | inactive | inactive | inactive | inactive | inactive | inactive | inactive | inactive | inactive | inactive | inactive | inactive | inactive | inactive | inactive | –
CC(C)CC(=O)NCC(=O)c1ccc(O)cc1 | inactive | inactive | inactive | inactive | inactive | inactive | inactive | inactive | inactive | inactive | inactive | inactive | inactive | inactive | inactive | inactive | –
CC(C)CCC(=O)NCC(=O)c1ccc(O)cc1 | inactive | inactive | inactive | inactive | inactive | inactive | inactive | inactive | inactive | inactive | inactive | inactive | inactive | inactive | inactive | inactive | –
CC(C)CC(=O)N/C=C/c1ccc(O)cc1 | inactive | inactive | inactive | inactive | inactive | inactive | inactive | – | inactive | inactive | inactive | inactive | inactive | inactive | inactive | inactive | Active
